{
  "source": "paper PMC12523843",
  "about": "“Kuwanon A Targeted YWHAB in Hepatocellular Carcinoma Cells to Inhibit the Raf/MEK/ERK Signaling Pathway” (Cells, 2025)",
  "key": {"[1]": {"target": "T1, Raf1 and YWHAB interaction (Homo sapiens, UniProt P31946)", "T1 construct": "host or cells: HEK 293T", "T1 sequence (P31946 1-246)": "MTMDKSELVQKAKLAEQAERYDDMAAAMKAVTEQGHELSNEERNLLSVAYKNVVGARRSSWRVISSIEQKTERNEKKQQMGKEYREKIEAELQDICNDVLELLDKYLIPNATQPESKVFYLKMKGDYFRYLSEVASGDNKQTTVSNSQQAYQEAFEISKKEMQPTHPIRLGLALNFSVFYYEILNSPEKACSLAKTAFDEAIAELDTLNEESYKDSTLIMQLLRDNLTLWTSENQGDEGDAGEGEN", "test": "Co-immunoprecipitation of MYC-YWHAB and FLAG-Raf 1 in HEK 293T", "assay_type": "cell-based", "conditions": "25 μM and 30 μM, HEK 293T overexpressing MYC-YWHAB and FLAG-Raf 1"}, "[2]": {"system": "HCC cells (MHCC97 H and SMMC 7721)", "test": "MTT cell proliferation assay", "assay_type": "cell-based, human", "conditions": "1–7 days", "procedure": "(§1) Cell viability was assessed using MTT experiments. Cells, together with KA, were seeded into 96-well plates at a density of 2000 cells per well with three replicates per condition. DMSO was used as a control. At designated time points, 20 μL of MTT (Sigma, St. Louis, MO, USA) solution was added to each well and incubated for 3 h. After removing the culture medium, 200 μL of DMSO was added to dissolve the formazan crystals. The absorbance was then measured using a microplate reader at a wavelength of 560 nm."}, "[3]": {"system": "MHCC97 H cells labeled with luciferase", "test": "In vivo imaging of pulmonary metastasis after tail vein injection", "design": "species or system BALB/c-nu mice", "conditions": "30 mg/kg intraperitoneal, once every two days, 32 days", "description": "Thirty-six female BALB/c-nu mice, four weeks old (supplied by Slike Jingda Laboratory Animal Co., Ltd., Changsha, China; Animal qualification number: SCXK-2019-0004), were housed in an SPF room. […] Therefore, female mice were selected for this study; 12 mice were used to establish the hepatocellular carcinoma xenografts. MHCC97 H cells (1 × 10^5 cells) were slowly injected into the left lobe of the mouse liver after being anesthetized with isoflurane. Three days later, the mice received intraperitoneal injections of KA (30 mg/kg) every two days for 45 days. Control mice were administered DMSO injections. Recorded the survival status of the animals. Prior to liver collection, the mice were anesthetized with isoflurane to minimize pain and euthanized by cervical dislocation. Ethics approval serial number: IACUC-20240613-03. Animal experiments were conducted in accordance with the Guide for the Care and Use of Laboratory Animals (Ministry of Science and Technology of China, 2006).\nMHCC97 H cells labeled with luciferase (1 × 10^5 cells) were injected into the 4- to 5-week-old female BALB/c-nu mice (SPF grade, average weight 16–18 g) through intravenous injection. Following the injection, luciferase substrate was delivered to the mice via intraperitoneal injection. After a 5-min period of anesthesia with isoflurane, the mice were imaged using an in vivo small animal imaging system. […]"}, "YWHAB dimer": {"target": "T2, YWHAB dimer (Homo sapiens, UniProt P31946)", "T2 sequence (P31946 1-246)": "T1 sequence (P31946 1-246)", "test": "Blue-Native PAGE of YWHAB dimer", "assay_type": "cell-based", "design": "endogenous in cells; host or cells: MHCC97 H and SMMC 7721", "conditions": "HCC cell lines and FLAG-YWHAB overexpressed HEK 293T cells", "procedure": "Blue/Clear Native PAGE (Real Times, Beijing, China) is an electrophoretic technique used to separate protein complexes from biological samples. Instead of SDS, Coomassie Brilliant Blue G-250 binds to the protein, imparting a negative charge, allowing separation in the PAGE gel based on the molecular weight of the proteins. HCC cells treated with KA or DMSO for 48 h were collected using a cell scraper and lysed on ice in IP cell lysis buffer for one hour. A suitable amount of 4× BN/CN-PAGE protein loading buffer and 5% G-250 stain (for loading) was added to the supernatant of the protein sample, followed by BN-PAGE electrophoresis in the Native PAGE gel. After electrophoresis and membrane transfer, the PVDF membrane (Millipore, Darmstadt, Germany) was blocked with 5% BSA for two hours at room temperature. HPR-linked primary and secondary antibodies were incubated for detection, and protein bands were visualized using the ECL detection system (Clinx, Shanghai, China)"}, "[4]": {"system": "MHCC97H and SMMC 7721 cells", "test": "CCK8 cell viability screen of mulberry active substances", "assay_type": "cell-based, human", "conditions": "10 μM, 48 h", "procedure": "The CCK8 assay is used to investigate the effect of compounds on cell viability by measuring the amount of formazan dye. Firstly, 8000 cells were inoculated into each well of the 96-well plate with three replicates per condition. At the same time, add the corresponding mulberry active substances. After 48 h of incubation, 20 μL of the Cell Counting Kit-8 (CCK8) reagent (Beyotime, Shanghai, China) was added to each well. After being cultured under 37 °C and 5% carbon dioxide for 2–3 h, the absorbance was measured at 450 nm."}, "[5]": {"system": "HCC cells (MHCC97 H and SMMC 7721)", "test": "Colony formation assay", "assay_type": "cell-based, human", "procedure": "Using a colony formation assay, the effect of KA on the colony-forming ability of HCC cells was evaluated. A total of 1000–2000 cells, along with KA, were seeded into each well of a six-well plate. During this period, fresh culture media and KA were replaced multiple times. After 2 to 3 weeks of incubation, the colonies were stained with crystal violet (Beyotime, Shanghai, China) and subsequently quantified in each well using ImageJ 1.52a software."}, "MHCC97 H cells [6]": {"system": "MHCC97 H cells", "test": "MTT IC50 determination in MHCC97 H", "assay_type": "cell-based, human", "conditions": "Homo sapiens, MHCC97H", "procedure": "as §1"}, "MHCC97 H cells [7]": {"system": "MHCC97 H cells", "test": "Transwell migration screen of selected compounds", "assay_type": "cell-based, human", "conditions": "compounds at an IC50 concentration", "procedure": "The Transwell assay measured the migration and invasion of cells by calculating the number of cells that passed through the material. Prior to the Transwell migration assay, cells were serum-starved in FBS-free culture medium for 24 h. The cells were then detached using trypsin, washed 1–2 times with PBS, and resuspended in DMEM. Approximately 50,000–100,000 cells were seeded into the upper chamber of the Transwell insert. The lower chamber was filled with 600 μL of complete medium containing the test compound. The Transwell system was incubated for 12 h under standard culture conditions (37 °C, 5% CO2). After incubation, the migrated cells on the lower membrane surface were fixed with 4% paraformaldehyde (PFA) and stained with 0.1% crystal violet. Non-migrated cells remaining in the upper chamber were carefully removed with a cotton swab. Finally, the stained cells were visualized under a microscope. If matrix gel was needed, it should be added according to the instructions (Beyotime, Shanghai, China) before the cells were seeded."}, "[8]": {"conditions": "YWHAB-overexpressing HCC cells, KA 15 μM"}},
  "note": "Where two headings read alike, the source gives them in different places.",
  "data": [
    {"smiles": "CC(C)=CCc1c(-c2ccc(O)c3c2OC(C)(C)C=C3)oc2cc(O)cc(O)c2c1=O", "note": "[KA, Kuwanon A]", "values": [
      {"measurement": "amount of YWHAB interacting with Raf1 (co-immunoprecipitation)", "setting": "[1]", "result": "reduction in the amount of YWHAB interacting with Raf1"},
      {"measurement": "HCC cell proliferation (continuous MTT)", "setting": "[2]; 10 μM and 15 μM, vs DMSO", "result": "significantly inhibited HCC cell proliferation in a dose-dependent manner"},
      {"measurement": "proliferation inhibition by KA under YWHAB overexpression (MTT)", "setting": "[2]; [8]", "result": "partly reversed the proliferation inhibition"},
      {"measurement": "pulmonary metastasis (in vivo imaging)", "setting": "[3]", "result": "significantly inhibited the pulmonary metastasis"},
      {"measurement": "proportion of YWHAB dimer (Native-PAGE)", "setting": "YWHAB dimer", "result": "proportion of YWHAB dimer had decreased"},
      {"measurement": "viability of HCC cells (CCK8)", "setting": "[4]", "result": "significantly inhibited the viability of HCC cells"},
      {"measurement": "in vitro colony formation ability under YWHAB overexpression", "setting": "[5]; [8]", "result": "failed to inhibit the in vitro colony formation ability"},
      {"measurement": "colony formation ability", "setting": "[5]; indicated concentrations of KA, vs DMSO", "result": "significantly reduced colony formation ability"},
      {"measurement": "IC50", "setting": "MHCC97 H cells [6]; MTT method, read-out: IC50 in MHCC97 H (screen)", "result": "< 20", "unit": "µM"},
      {"measurement": "IC50", "setting": "MHCC97 H cells [6]; MTT, gradient concentrations, 48 h, read-out: IC50 in MHCC97 H", "result": 8.4, "unit": "µM"},
      {"measurement": "migration of MHCC97 H (Transwell)", "setting": "MHCC97 H cells [7]", "result": "significantly inhibited the migration of MHCC97 H"}
    ]}
  ]
}
